The text below walks through data of patent US20130210846A1, “USE OF NOVEL PAN-CDK INHIBITORS FOR TREATING TUMORS” (BAYER INTELLECTUAL PROPERTY GMBH, priority 2010, published 2013).

One assay has as its system H1975. The assay is described as follows: Proliferation assay H1975. The note with it: Homo sapiens, NCI-H1975, 96 h; H1975, non-small-cell bronchial carcinoma; 4 days, crystal violet. Format: cell-based. How it is done: (§1) Cultivated human tumor cells (originally obtained from ATCC, HeLa-MaTu and HeLa-MaTu-ADR, originally obtained from Epo GmbH, Berlin, Germany) were plated at a density of 1000 to 5000 cells/measuring point, depending on the growth rate of the cell line, in a 96-well multititer plate in 200 μl of growth medium (DMEM/HAMS F12, 2 mM L-glutamine, 10% fetal calf serum). After 24 hours the cells of one plate (zero-point plate) were stained with crystal violet (see below), whereas the medium of the other plates was replaced with fresh culture medium (200 μl), to which the test substances had been added at various concentrations (0 μM, and in the range 0.01-30 μM; the final concentration of the solvent dimethyl sulfoxide was 0.5%). The cells were incubated for 4 days in the presence of the test substances. Cellular proliferation was determined by staining the cells with crystal violet: the cells were fixed by adding 20 μl/measuring point of an 11% glutaraldehyde solution for 15 min at room temperature. After washing the fixed cells with water three times, the plates were dried at room temperature. The cells were stained by adding 100 μl/measuring point of a 0.1% crystal violet solution (pH adjusted to pH3 by adding acetic acid). After washing the stained cells with water three times, the plates were dried at room temperature. The dye was dissolved by adding 100 μl/measuring point of a 10% acetic acid solution. The extinction was determined photometrically at a wavelength of 595 nm. The percentage change in cell growth was calculated by standardization of the measured values to the extinction values of the zero-point plate (=0%) and the extinction of the untreated (0 μM) cells (=100%). The measured data were standardized to 0% inhibition (cell proliferation without inhibitor) and 100% inhibition (zero-point plate). The IC50 values were determined by means of a 4-parameter fit using the company's own software.
(§2) The substances were examined in the following cell lines which, in an exemplary manner, represent the stated indications: […]

The next assay relates to 786-O. The experiment in a line: Proliferation assay 786-O. It is filed as cell-based. As to conditions: Homo sapiens, 786-0, 96 h, kidney carcinoma, 4 days, crystal violet. How it is done:
as §1, §2

A further assay has as its system HeLa. The experiment in a line: Proliferation assay HeLa. Format: cell-based. As to conditions: Homo sapiens, 96 h, cervix carcinoma, 4 days, crystal violet. How it is done:
as §1, §2

For a further assay, the target named is T1, CDK1/CycB (Homo sapiens, UniProt P06493).
T1 construct: purchased ProQinase GmbH, Freiburg, Germany; host or cells: baculovirus-infected insect cells (Sf9)
T1 sequence (P06493 whole entry): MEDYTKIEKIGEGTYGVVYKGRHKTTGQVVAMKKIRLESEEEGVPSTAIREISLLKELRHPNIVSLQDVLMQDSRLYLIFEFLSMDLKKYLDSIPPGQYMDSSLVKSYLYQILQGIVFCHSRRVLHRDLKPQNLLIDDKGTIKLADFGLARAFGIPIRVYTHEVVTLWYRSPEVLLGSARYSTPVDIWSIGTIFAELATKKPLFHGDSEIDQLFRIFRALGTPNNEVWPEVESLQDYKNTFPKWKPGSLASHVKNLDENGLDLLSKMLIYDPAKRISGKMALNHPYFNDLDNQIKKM
T1 sequence (P14635 whole entry partner): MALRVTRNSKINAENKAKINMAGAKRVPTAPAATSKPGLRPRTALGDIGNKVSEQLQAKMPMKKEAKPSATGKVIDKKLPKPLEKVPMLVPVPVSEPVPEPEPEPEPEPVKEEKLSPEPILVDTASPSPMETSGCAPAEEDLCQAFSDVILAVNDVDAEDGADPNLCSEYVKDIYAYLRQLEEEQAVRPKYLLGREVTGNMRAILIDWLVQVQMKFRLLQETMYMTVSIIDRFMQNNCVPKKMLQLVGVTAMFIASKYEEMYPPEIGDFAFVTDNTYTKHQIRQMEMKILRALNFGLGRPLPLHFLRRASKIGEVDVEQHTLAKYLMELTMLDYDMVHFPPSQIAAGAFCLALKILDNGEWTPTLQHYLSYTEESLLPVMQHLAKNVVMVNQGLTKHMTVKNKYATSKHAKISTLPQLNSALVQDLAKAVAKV
The experiment in a line: CDK1/CycB kinase assay (Assay 1). As to conditions: 0.5 μM ATP, histon IIIS, 10 min 22° C.; read-out: CDK1/CycB (Assay 1) Concentration for half-maximal inhibition of the enzyme activity, IC50. Format: biochemical. How it is done: Recombinant CDK1 and CycB-GST fusion proteins, purified from baculovirus-infected insect cells (Sf9), were purchased from ProQinase GmbH, Freiburg, Germany. The histon HIS used as kinase substrate is commercially available from Sigma.
CDK1/CycB (200 ng/measuring point) was incubated for 10 min at 22° C. in the presence of various concentrations of test substances (0 μM, and within the range 0.01-100 μM) in assay buffer [50 mM Tris/HCl pH8.0, 10 mM MgCl2, 0.1 mM Na ortho-vanadate, 1.0 mM dithiothreitol, 0.5 μM adenosine triphosphate (ATP), 10 μg/measuring point histon IIIS, 0.2 μCi/measuring point ^33P-gamma ATP, 0.05% NP40, 1.25% dimethyl sulfoxide]. The reaction was stopped by adding EDTA solution (250 mM, pH 8.0, 15 μl/measuring point).
From each reaction mixture, 15 μl were applied to P30 filter strips (from Wallac), and unincorporated ^33P-ATP was removed by washing the filter strips three times, for 10 min each time, in 0.5% phosphoric acid. After drying the filter strips for 1 hour at 70° C., the filter strips were covered with scintillator strips (MeltiLex™ A, from Wallac) and stoved for 1 hour at 90° C. The amount of incorporated ^33P (substrate phosphorylation) was determined by scintillation measurement in a gamma-radiation measuring instrument (Wallac). The measured data were standardized to 0% inhibition (enzyme reaction without inhibitor) and 100% inhibition (all assay components except enzyme). The IC50 values were determined by means of a 4-parameter fit using the company's own software.

For the next assay, the system named is MIA PaCa-2. The experiment in a line: Proliferation assay MIA PaCa-2. Format: cell-based. The note with it: Homo sapiens, 96 h; MIA PaCa-2, pancreas carcinoma; 4 days, crystal violet. How it is done: as §1, §2
Another assay concerns A431. The experiment in a line: Proliferation assay A431. Format: cell-based. As to conditions: Homo sapiens, A-431, 96 h; A431, skin: epidermis; 4 days, crystal violet. How it is done:
as §1, §2

The test system of a further assay is PC3. The experiment in a line: Proliferation assay PC3. Format: cell-based. The note with it: Homo sapiens, PC-3, 96 h; PC3, prostate carcinoma; 4 days, crystal violet. How it is done:
as §1, §2

For the next assay, the system named is HCT116. The assay is described as follows: Proliferation assay HCT116. It is filed as cell-based. The note with it: Homo sapiens, HCT-116, 96 h; HCT116, colon/rectum carcinoma; 4 days, crystal violet. How it is done:
as §1, §2

In another assay the test system is SW480. The experiment in a line: Proliferation assay SW480. It is filed as cell-based. As to conditions: Homo sapiens, 96 h; SW480, colon/rectum carcinoma; 4 days, crystal violet. How it is done:
as §1, §2

Another assay deals with SK-BR-3. The assay is described as follows: Proliferation assay SK-BR-3. The note with it: Homo sapiens, 96 h; SK-BR-3, estrogen receptor-negative mamma carcinoma; 4 days, crystal violet. Format: cell-based. How it is done: as §1, §2
A further assay has as its system HeLa-MaTu-ADR. The assay is described as follows: Proliferation assay HeLa-MaTu-ADR. It is filed as cell-based, human. As to conditions: cervix carcinoma, 4 days, crystal violet. In outline: (§3)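 Human tumour cells plated 1000 to 5000 cells/well, treated after 24 h with compound (0.01-30 μM, 0.5% DMSO) for 4 days. Growth by crystal violet staining read at 595 nm, normalised to zero-point plate and untreated cells; IC50 from 4-parameter fit.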

In another assay the test system is DU145. The experiment in a line: Proliferation assay DU145. It is filed as cell-based, human. As to conditions: DU145, prostate carcinoma, 4 days, crystal violet. The method in brief:
as §3

For the next assay, the system named is Caco-2. The assay is described as follows: Proliferation assay Caco-2. It is filed as cell-based, human. The note with it: Caco-2, colon/rectum carcinoma, 4 days, crystal violet. In outline: as §3
In another assay the test system is MCF7. The assay is described as follows: Proliferation assay MCF7. Format: cell-based, human. The note with it: MCF7, estrogen receptor-positive mamma carcinoma, 4 days, crystal violet. The method in brief: as §3

Structures are written as SMILES. pIC50: −log10 of the molar value. Bounds are passed on as bounds.

As for `C[C@@H](O)[C@@H](C)Oc1nc(Nc2ccc(S(C)(=N)=O)cc2)ncc1C(F)(F)F` (single isomer, unassigned) [Example 2-SI-2], the pIC50 in the assay on H1975 is 7.85; in the assay on 786-O, 7.66; with HeLa, 7.89; at CDK1/CycB, 8.40; in the assay with MIA PaCa-2, 7.72; in the assay on A431, 7.77. For the same compound, the pIC50 in the assay with PC3 is 7.57; in the assay on HCT116 it was 7.80; in the assay with SW480 it was 7.72; in the assay with SK-BR-3, 7.68.
On to `C[C@@H](O)[C@@H](C)Oc1nc(Nc2ccc(S(C)(=N)=O)cc2)ncc1C(F)(F)F` (mixture of isomers) [Example 2-SI-2, (RS)—S-(4-{[4-{[(1R,2R)-2-Hydroxy-1-methylpropyl]oxy}-5-(trifluoromethyl)pyrimidin-2-yl]-amino}phenyl)-S-methylsulfoximide], for which the pIC50 is 8.15 in the assay on HeLa-MaTu-ADR, 8.05 with DU145, 7.62 in the assay with Caco-2 and 7.96 with MCF7.
For `C[C@@H](O)[C@@H](C)Nc1nc(Nc2ccc(S(=N)(=O)C3CC3)cc2)ncc1C(F)(F)F` (mixture of isomers) [Example 4-SI-1, (RS)—S-Cyclopropyl-S-(4-{[4-{[(1R,2R)-2-hydroxy-1-methylpropyl]amino}-5-(trifluoromethyl)-pyrimidin-2-yl]amino}phenyl)sulfoximide], the pIC50 in the assay on H1975 was 7.80; in the assay with HeLa-MaTu-ADR (Homo sapiens, 96 h), 7.80; in the assay on 786-O, 7.52; with HeLa, 7.48; on CDK1/CycB, 8.22; with MIA PaCa-2 it was 7.85. The pIC50 was 7.51 with DU145 (Homo sapiens, DU-145, 96 h); 7.70 in the assay on A431; 7.46 in the assay with Caco-2 (Homo sapiens, Caco-2, 96 h); more than 8.00 in the assay with PC3; 7.70 with HCT116; 7.47 with MCF7 (Homo sapiens, MCF7, 96 h). Besides, the figures for the pIC50 in the assay on SW480 and in the assay with SK-BR-3 were 7.66 and 7.48, respectively.
